Experimental data reported in PubChem BioAssay (NCI).
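Interpolation was linear, between the two tested concentrations surrounding the appropriate level; five concentrations were tested over 48 hours in 96-well plates. Abbreviation: GI50, concentration required for 50% inhibition of growth. The concentration for full growth arrest is given as TGI.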

Assays:
Assay in all cases: NCI tumour cell line growth inhibition, 48 h
U251 CNS = test system: U251 CNS
OVCAR-8 ovarian = test system: OVCAR-8 ovarian
SN12C renal = test system: SN12C renal
CCRF-CEM leukemia = test system: CCRF-CEM leukemia
HCT-116 colon = test system: HCT-116 colon
IGROV1 ovarian = test system: IGROV1 ovarian
HT29 colon = test system: HT29 colon
MALME-3M melanoma = test system: MALME-3M melanoma
OVCAR-3 ovarian = test system: OVCAR-3 ovarian
OVCAR-4 ovarian = test system: OVCAR-4 ovarian

Question: How did the TGI (U251 CNS) turn out when `CC(C)(C)[Si](OC1CC(n2cnc3c(N)ncnc32)OC1CO)(c1ccccc1)c1ccccc1` (stereo not given) was run?
Answer: The TGI was 34.1 µM.

Question: And the TGI (OVCAR-8 ovarian)?
Answer: Its TGI is 33.3 µM.

Question: And the TGI (SN12C renal)?
Answer: The TGI was 43.3 µM.

Question: And the TGI (CCRF-CEM leukemia)?
Answer: The TGI was > 100 µM.

Question: What about the TGI (HCT-116 colon) of the same compound?
Answer: The TGI was 31.3 µM.

Question: What about the TGI (IGROV1 ovarian) of the same compound?
Answer: The TGI was 48 µM.

Question: And the TGI (HT29 colon)?
Answer: Its TGI is 30.2 µM.

Question: What about the TGI (MALME-3M melanoma) of the same compound?
Answer: Its TGI is 45.9 µM.

Question: And the TGI (OVCAR-3 ovarian)?
Answer: The TGI was 33.9 µM.

Question: And the TGI (OVCAR-4 ovarian)?
Answer: The TGI was 28.5 µM.

Question: How did the TGI (U251 CNS) turn out when `O=C1C(Cl)N(c2ccc(Cl)cc2)C1c1c[nH]c2ccccc12` (stereo not given) was run?
Answer: Its TGI is 25.7 µM.

Question: And the TGI (OVCAR-8 ovarian)?
Answer: Its TGI is > 100 µM.

Question: And the TGI (SN12C renal)?
Answer: The TGI was 36 µM.

Question: And the TGI (CCRF-CEM leukemia)?
Answer: Its TGI is > 100 µM.

Question: What about the TGI (HCT-116 colon) of the same compound?
Answer: The TGI was 28.2 µM.

Question: And the TGI (IGROV1 ovarian)?
Answer: Its TGI is 62.6 µM.

Question: What about the TGI (HT29 colon) of the same compound?
Answer: Its TGI is 37.5 µM.

Question: And the TGI (MALME-3M melanoma)?
Answer: The TGI was 25.6 µM.

Question: What about the TGI (OVCAR-3 ovarian) of the same compound?
Answer: Its TGI is 36.1 µM.

Question: And the TGI (OVCAR-4 ovarian)?
Answer: The TGI was > 100 µM.

Question: `COc1ccc(N2C(=O)/C(=C(\C)c3cc4ccccc4oc3=O)N=C2c2cc([N+](=O)[O-])ccc2Cl)cc1` was tested. Which TGI (U251 CNS) did it give?
Answer: Its TGI is > 100 µM.

Question: What about the TGI (OVCAR-8 ovarian) of the same compound?
Answer: The TGI was > 100 µM.

Question: And the TGI (SN12C renal)?
Answer: Its TGI is > 100 µM.

Question: And the TGI (CCRF-CEM leukemia)?
Answer: Its TGI is > 100 µM.

Question: And the TGI (HCT-116 colon)?
Answer: The TGI was > 100 µM.

Question: What about the TGI (IGROV1 ovarian) of the same compound?
Answer: The TGI was > 100 µM.

Question: And the TGI (HT29 colon)?
Answer: The TGI was > 100 µM.

Question: What about the TGI (MALME-3M melanoma) of the same compound?
Answer: The TGI was > 100 µM.

Question: And the TGI (OVCAR-3 ovarian)?
Answer: The TGI was > 100 µM.

Question: What about the TGI (OVCAR-4 ovarian) of the same compound?
Answer: Its TGI is > 100 µM.

Question: With `O=C(O)c1ccc(Nc2c3ccccc3nc3ccccc23)cc1` as the compound, how does the TGI (U251 CNS) read?
Answer: The TGI was > 100 µM.

Question: And the TGI (OVCAR-8 ovarian)?
Answer: Its TGI is > 100 µM.

Question: What about the TGI (SN12C renal) of the same compound?
Answer: Its TGI is > 100 µM.

Question: What about the TGI (CCRF-CEM leukemia) of the same compound?
Answer: Its TGI is > 100 µM.

Question: And the TGI (HCT-116 colon)?
Answer: Its TGI is > 100 µM.

Question: What about the TGI (IGROV1 ovarian) of the same compound?
Answer: Its TGI is > 100 µM.

Question: What about the TGI (HT29 colon) of the same compound?
Answer: Its TGI is > 100 µM.

Question: And the TGI (MALME-3M melanoma)?
Answer: The TGI was > 100 µM.

Question: What about the TGI (OVCAR-3 ovarian) of the same compound?
Answer: The TGI was > 100 µM.

Question: And the TGI (OVCAR-4 ovarian)?
Answer: The TGI was > 100 µM.

Question: How did the GI50 (U251 CNS) turn out when `CN(C)CCCNC(=O)c1cc2[nH]c3c(cnc4ccc([N+](=O)[O-])cc43)c(=O)c2n1C` was run?
Answer: Its GI50 is 17.5 µM.

Question: And the TGI (U251 CNS)?
Answer: The TGI was 31.3 µM.

Question: What about the GI50 (OVCAR-8 ovarian) of the same compound?
Answer: The GI50 was 20.2 µM.

Question: And the TGI (OVCAR-8 ovarian)?
Answer: Its TGI is 43.2 µM.

Question: What about the GI50 (SN12C renal) of the same compound?
Answer: The GI50 was 20.8 µM.

Question: What about the TGI (SN12C renal) of the same compound?
Answer: The TGI was 35.4 µM.

Question: What about the GI50 (CCRF-CEM leukemia) of the same compound?
Answer: The GI50 was 14.5 µM.

Question: And the TGI (CCRF-CEM leukemia)?
Answer: Its TGI is 30.6 µM.

Question: And the GI50 (HCT-116 colon)?
Answer: Its GI50 is 6.8 µM.

Question: What about the TGI (HCT-116 colon) of the same compound?
Answer: The TGI was 20.1 µM.

Question: And the GI50 (IGROV1 ovarian)?
Answer: Its GI50 is 12.5 µM.

Question: What about the TGI (IGROV1 ovarian) of the same compound?
Answer: The TGI was 27.7 µM.

Question: And the GI50 (HT29 colon)?
Answer: The GI50 was 5.93 µM.

Question: What about the TGI (HT29 colon) of the same compound?
Answer: Its TGI is 18.6 µM.

Question: And the GI50 (MALME-3M melanoma)?
Answer: The GI50 was 21.3 µM.

Question: And the TGI (MALME-3M melanoma)?
Answer: The TGI was 40.4 µM.

Question: And the GI50 (OVCAR-3 ovarian)?
Answer: The GI50 was 19.4 µM.

Question: What about the TGI (OVCAR-3 ovarian) of the same compound?
Answer: The TGI was 45.9 µM.

Question: What about the GI50 (OVCAR-4 ovarian) of the same compound?
Answer: The GI50 was 14 µM.

Question: And the TGI (OVCAR-4 ovarian)?
Answer: Its TGI is 31.6 µM.

Question: With `Cc1cc(C)n(C(=C(C(Cl)=C(Cl)Cl)[N+](=O)[O-])n2nc(C)cc2C)n1` as the compound, how does the TGI (U251 CNS) read?
Answer: The TGI was 11.7 µM.

Question: What about the TGI (OVCAR-8 ovarian) of the same compound?
Answer: Its TGI is 9.22 µM.

Question: And the TGI (SN12C renal)?
Answer: Its TGI is 15.9 µM.

Question: And the TGI (CCRF-CEM leukemia)?
Answer: Its TGI is 5.8 µM.

Question: What about the TGI (HCT-116 colon) of the same compound?
Answer: The TGI was 14.5 µM.

Question: And the TGI (IGROV1 ovarian)?
Answer: Its TGI is 14.9 µM.

Question: And the TGI (HT29 colon)?
Answer: The TGI was 11.5 µM.

Question: What about the TGI (MALME-3M melanoma) of the same compound?
Answer: Its TGI is 7.86 µM.

Question: What about the TGI (OVCAR-3 ovarian) of the same compound?
Answer: Its TGI is 10.4 µM.

Question: What about the TGI (OVCAR-4 ovarian) of the same compound?
Answer: Its TGI is 7.47 µM.
